Measured values: US8431593B2, “Heteroaryl amide derivatives” (H. Lundbeck A/S, priority 2006, dated 2013)

Each molecule was assayed against T1, P2X7 receptor (Homo sapiens, UniProt Q99572) (assay: P2X7 calcium mobilization assay, high throughput, antagonist activity (Example 4A)). Conditions: not given.
T1 construct: host or cells: SH-SY5Y
T1 sequence (Q99572 1-595): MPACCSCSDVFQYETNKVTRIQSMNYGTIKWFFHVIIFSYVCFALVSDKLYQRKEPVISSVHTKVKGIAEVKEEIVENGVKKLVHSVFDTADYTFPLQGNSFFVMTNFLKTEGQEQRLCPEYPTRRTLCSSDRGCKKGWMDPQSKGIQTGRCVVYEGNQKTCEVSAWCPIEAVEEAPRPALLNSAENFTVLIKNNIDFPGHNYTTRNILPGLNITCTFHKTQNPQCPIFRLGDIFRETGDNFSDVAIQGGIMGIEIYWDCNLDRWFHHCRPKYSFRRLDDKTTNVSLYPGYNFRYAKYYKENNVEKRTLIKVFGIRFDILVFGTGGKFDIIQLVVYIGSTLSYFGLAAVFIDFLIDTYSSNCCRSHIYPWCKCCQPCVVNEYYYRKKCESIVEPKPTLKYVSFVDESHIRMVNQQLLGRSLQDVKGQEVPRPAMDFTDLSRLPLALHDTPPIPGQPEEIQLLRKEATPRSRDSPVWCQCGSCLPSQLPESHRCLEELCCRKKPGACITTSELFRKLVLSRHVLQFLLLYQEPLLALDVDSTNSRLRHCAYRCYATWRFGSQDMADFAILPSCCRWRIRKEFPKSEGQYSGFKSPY
Assay type: cell-based
Protocol: One day prior to the experiment, cells are plated at a density of 100,000 cells/well in a 96 well black/clear TC plate (Corning® Costar®, Sigma-Aldrich Co., St. Louis, Mo.). […] After one hour dye incubation, wells are rinsed once with 50 μL assay solution, and are then incubated for an hour at room temperature with 100 μL assay solution containing the test compound. […] After the one hour incubation, plates are transferred to a FLIPR^TETRA instrument (Molecular Devices, Sunnyvale, Calif.) for calcium mobilization analysis.
First, the average maximum relative fluorescent unit (RFU) response from the negative control wells (no agonist) is subtracted from the maximum response detected for each of the other experimental wells. Second, average maximum RFU response is calculated for the positive control wells (agonist wells).

Compound	IC50
CC(C)(C)OC(=O)N[C@@H]1CCN(Cc2cn3c(C(=O)NCC45CC6CC(CC(C6)C4)C5)cccc3n2)C1 [Compound 62, tert-butyl [(3R)-1-({5-[(adamantan-1-ylmethyl)carbamoyl]imi-dazo[1,2-a]pyridin-2-yl}methyl)pyrrolidin-3-yl]carbamate]	< 2000 nM
O=C(NCC12CC3CC(CC(C3)C1)C2)c1cccc2nc(CNCCO)cn12 [Compound 65, N-(adamantan-1-ylmethyl)-2-{[(2-hydroxy-ethyl)amino]methyl}imi-dazo[1,2-a]pyridine-5-carboxamide]	< 2000 nM
C[C@@H](CO)NCc1cn2c(C(=O)NCC34CC5CC(CC(C5)C3)C4)cccc2n1 [Compound 66, N-(adamantan-1-ylmethyl)-2-({[(1S)-2-hydroxy-1-methylethyl]amino}methyl)imi-dazo[1,2-a]pyridine-5-carboxamide]	< 2000 nM

Same assay, conditions: SH-SY5Y cells; 50% decrease in fluorescence response to 80 μM BzATP; read-out: IC50

Compound	IC50
COC1CCCN(C(=O)Cc2cn3c(C(=O)NCC45CC6CC(CC(C6)C4)C5)cccc3n2)C1 (stereo not drawn) [Compound 47, N-(adamantan-1-ylmethyl)-2-[2-(3-methoxypiperidin-1-yl)-2-oxoethyl]imidazo[1,2-a]pyridine-5-carboxamide]	< 2000 nM
NC(=O)C1CCCN(C(=O)Cc2cn3c(C(=O)NCC45CC6CC(CC(C6)C4)C5)cccc3n2)C1 (stereo not drawn) [Compound 50, N-(adamantan-1-ylmethyl)-2-[2-(3-carbamoylpiperidin-1-yl)-2-oxoethyl]imidazo[1,2-a]pyridine-5-carboxamide]	< 2000 nM
CN(CCO)C(=O)Cc1cn2c(C(=O)NCC34CC5CC(CC(C5)C3)C4)cccc2n1 [Compound 51, N-(adamantan-1-ylmethyl)-2-{2-[(2-hydroxy-ethyl)(methyl)amino]-2-oxoethyl}imidazo[1,2-a]pyridine-5-carboxamide]	< 2000 nM
O=C(NCC12CC3CC(CC(C3)C1)C2)c1cccc2nc(CC(=O)N3CCCC(O)C3)cn12 (stereo not drawn) [Compound 53, N-(adamantan-1-ylmethyl)-2-[2-(3-hydroxypiperidin-1-yl)-2-oxoethyl]imidazo[1,2-a]pyridine-5-carboxamide]	< 2000 nM
O=C(NCC12CC3CC(CC(C3)C1)C2)c1cccc2nc(CC(=O)N3CCC(O)CC3)cn12 [Compound 54, N-(adamantan-1-ylmethyl)-2-[2-(4-hydroxypiperidin-1-yl)-2-oxoethyl]imidazo[1,2-a]pyridine-5-carboxamide]	< 2000 nM
O=C(NCC12CC3CC(CC(C3)C1)C2)c1cccc2nc(CC(=O)N3CC(O)C3)cn12 [Compound 55, N-(adamantan-1-ylmethyl)-2-[2-(3-hydroxyazetidin-1-yl)-2-oxoethyl]imidazo[1,2-a]pyridine-5-carboxamide]	< 2000 nM
CC1(O)CCN(C(=O)Cc2cn3c(C(=O)NCC45CC6CC(CC(C6)C4)C5)cccc3n2)CC1 [Compound 56, N-(adamantan-1-ylmethyl)-2-[2-(4-hydroxy-4-methylpiperidin-1-yl)-2-oxoethyl]imidazo[1,2-a]pyridine-5-carboxamide]	< 2000 nM
CN(CC(C)(C)O)C(=O)Cc1cn2c(C(=O)NCC34CC5CC(CC(C5)C3)C4)cccc2n1 [Compound 57, N-(adamantan-1-ylmethyl)-2-{2-[(2-hydroxy-2-methyl-propyl)(meth-yl)amino]-2-oxoethyl}imidazo[1,2-a]pyridine-5-carboxamide]	< 2000 nM
CN(CCC(C)(C)O)C(=O)Cc1cn2c(C(=O)NCC34CC5CC(CC(C5)C3)C4)cccc2n1 [Compound 58, N-(adamantan-1-ylmethyl)-2-{2-[(3-hydroxy-3-methyl-butyl)(methyl)amino]-2-oxoethyl}imidazo[1,2-a]pyridine-5-carboxamide]	< 2000 nM
CN(CCCC(C)(C)O)C(=O)Cc1cn2c(C(=O)NCC34CC5CC(CC(C5)C3)C4)cccc2n1 [Compound 59, N-(adamantan-1-ylmethyl)-2-{2-[(4-hydroxy-4-methylpentyl)(meth-yl)amino]-2-oxoethyl}imidazo[1,2-a]pyridine-5-carboxamide]	< 2000 nM
CC1(O)CCN(C(=O)Cc2cn3c(C(=O)NCC45CC6CC(CC(C6)C4)C5)cccc3n2)C1 (stereo not drawn) [Compound 60, N-(adamantan-1-ylmethyl)-2-[2-(3-hydroxy-3-methylpyrrolidin-1-yl)-2-oxoethyl]imidazo[1,2-a]pyridine-5-carboxamide]	< 2000 nM
CCOC(=O)Cc1nc2cccc(C(=O)NCC34CC5CC(CC(C5)C3)C4)n2c1Cl [Compound 61, {5-[(Adamantan-1-ylmethyl)-carbamoyl]-3-chloro-imidazo[1,2-a]pyridin-2-yl}-acetic acid ethyl ester]	< 2000 nM
CS(=O)(=O)OCCc1cn2c(C(=O)NCC34CC5CC(CC(C5)C3)C4)cccc2n1 [Compound 63, methanesulfonic acid 2-{5-[(adamantan-1-ylmethyl)-carbamoyl]-imidazo[1,2-a]pyridin-2-yl}-ethyl ester]	< 2000 nM
O=C(NCC12CC3CC(CC(C3)C1)C2)c1cccc2nc(CC(=O)N3CCNCC3)cn12 [Compound 64, N-(adamantan-1-ylmethyl)-2-(2-oxo-2-piperazin-1-ylethyl)imidazo[1,2-a]pyridine-5-carboxamide]	< 2000 nM
CC(=O)NCCNCc1cn2c(C(=O)NCC34CC5CC(CC(C5)C3)C4)cccc2n1 [Compound 67, 2-{[(2-acetamido-ethyl)amino]methyl}-N-(adamantan-1-ylmethyl)imidazo[1,2-a]pyridine-5-carboxamide]	< 2000 nM
O=C(NCC12CC3CC(CC(C3)C1)C2)c1cccc2nc(CNCc3ccccn3)cn12 [Compound 68, N-(adamantan-1-ylmethyl)-2-{[(pyridin-2-ylmethyl)amino]meth-yl}imidazo[1,2-a]pyridine-5-carboxamide]	< 2000 nM
N[C@@H]1CCN(Cc2cn3c(C(=O)NCC45CC6CC(CC(C6)C4)C5)cccc3n2)C1 [Compound 69, N-(adamantan-1-ylmethyl)-2-{[(3R)-3-aminopyrrolidin-1-yl]methyl}imidazo[1,2-a]pyridine-5-carboxamide]	< 2000 nM

Second part, the molecule after the results:

IC50	Compound
< 2000 nM	CC(=O)N[C@@H]1CCN(Cc2cn3c(C(=O)NCC45CC6CC(CC(C6)C4)C5)cccc3n2)C1 [Compound 70, 2-[(3-acetamidopyrrolidin-1-yl)methyl]-N-(adamantan-1-ylmethyl)imidazo[1,2-a]pyridine-5-carboxamide]
< 2000 nM	CCNC(=O)c1cn2c(C(=O)NCC34CC5CC(CC(C5)C3)C4)cccc2n1 [Compound 72, 5-N-(adamantan-1-ylmethyl)-- ethylimidazo[1,2-a]pyridine-2,5-dicarboxamide]
< 2000 nM	CC(C)CNC(=O)c1cn2c(C(=O)NCC34CC5CC(CC(C5)C3)C4)cccc2n1 [Compound 73, 5-N-(adamantan-1-ylmethyl)-- isobutylimidazo[1,2-a]pyridine-2,5-dicarboxamide]
< 2000 nM	CN(C)C(=O)CNC(=O)c1cn2c(C(=O)NCC34CC5CC(CC(C5)C3)C4)cccc2n1 [Compound 74, 5-N-(adamantan-1-ylmethyl)--[2-(dimethylamino)-2-oxoethyl]imidazo[1,2-a]pyridine-2,5-dicarboxamide]
< 2000 nM	COCCN(C)C(=O)CNC(=O)c1cn2c(C(=O)NCC34CC5CC(CC(C5)C3)C4)cccc2n1 [Compound 75, 5-N-(adamantan-1-ylmethyl)--{2-[(2-methoxy-ethyl)(methyl)amino]-2-oxoethyl}imidazo[1,2-a]pyridine-2,5-dicarboxamide]
< 2000 nM	O=C(NCC(=O)N1CCOCC1)c1cn2c(C(=O)NCC34CC5CC(CC(C5)C3)C4)cccc2n1 [Compound 76, 5-N-(adamantan-1-ylmethyl)--(2-morpholin-4-yl-2-oxoethyl)imidazo[1,2-a]pyridine-2,5-dicarboxamide]
< 2000 nM	NC(=O)CCNC(=O)c1cn2c(C(=O)NCC34CC5CC(CC(C5)C3)C4)cccc2n1 [Compound 77, 5-N-(adamantan-1-ylmethyl)--(3-amino-3-oxopropyl)imidazo[1,2-a]pyridine-2,5-dicarboxamide]
< 2000 nM	NC(=O)CNC(=O)c1cn2c(C(=O)NCC34CC5CC(CC(C5)C3)C4)cccc2n1 [Compound 78, 5-N-(adamantan-1-ylmethyl)--(2-amino-2-oxoethyl)imidazo[1,2-a]pyridine-2,5-dicarboxamide]
< 2000 nM	CC(NC(=O)c1cn2c(C(=O)NCC34CC5CC(CC(C5)C3)C4)cccc2n1)C(N)=O (stereo not drawn) [Compound 79, 5-N-(adamantan-1-ylmethyl)--(2-amino-1-methyl-2-oxoethyl)imidazo[1,2-a]pyridine-2,5-dicarboxamide]
< 2000 nM	O=C(NCCCO)c1cn2c(C(=O)NCC34CC5CC(CC(C5)C3)C4)cccc2n1 [Compound 80, 5-N-(adamantan-1-ylmethyl)--(3-hydroxy-propyl)imidazo[1,2-a]pyridine-2,5-dicarboxamide]
